# In PubChem BioAssay (NCI):
#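 A five-concentration, 48-hour dose response in 96-well plates underlies each endpoint, interpolated linearly between surrounding concentrations. The concentration for 50% growth inhibition is given as GI50. The concentration for full growth arrest is given as TGI.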
# Key:
# Assay in all cases: NCI anticancer screen, dose series, 48 h
# 786-0 renal = system: 786-0 renal
# A498 renal = system: A498 renal
# BT-549 breast = system: BT-549 breast
# CCRF-CEM leukemia = system: CCRF-CEM leukemia
# COLO 205 colon = system: COLO 205 colon
# DU-145 prostate = system: DU-145 prostate
# HCC-2998 colon = system: HCC-2998 colon
# HCT-116 colon = system: HCT-116 colon
# HCT-15 colon = system: HCT-15 colon
# HL-60(TB) leukemia = system: HL-60(TB) leukemia
# HOP-62 NSCLC = system: HOP-62 NSCLC
# HOP-92 NSCLC = system: HOP-92 NSCLC
# HS 578T breast = system: HS 578T breast
# HT29 colon = system: HT29 colon
# IGROV1 ovarian = system: IGROV1 ovarian
# K-562 leukemia = system: K-562 leukemia
# LOX IMVI melanoma = system: LOX IMVI melanoma
# M14 melanoma = system: M14 melanoma
# MALME-3M melanoma = system: MALME-3M melanoma
# MCF7 breast = system: MCF7 breast
# MDA-MB-231 breast = system: MDA-MB-231 breast
# MDA-MB-435 = system: MDA-MB-435
# MOLT-4 leukemia = system: MOLT-4 leukemia
# NCI-H226 lung = system: NCI-H226 lung
# NCI-H23 lung = system: NCI-H23 lung
# NCI-H460 lung = system: NCI-H460 lung
# NCI/ADR-RES ovarian = system: NCI/ADR-RES ovarian
# OVCAR-3 ovarian = system: OVCAR-3 ovarian
# OVCAR-4 ovarian = system: OVCAR-4 ovarian
# OVCAR-5 ovarian = system: OVCAR-5 ovarian
# OVCAR-8 ovarian = system: OVCAR-8 ovarian
# PC-3 prostate = system: PC-3 prostate
# RPMI-8226 leukemia = system: RPMI-8226 leukemia
# RXF 393 renal = system: RXF 393 renal
# SF-268 CNS = system: SF-268 CNS
# SF-295 CNS = system: SF-295 CNS
# SF-539 CNS = system: SF-539 CNS
# SK-MEL-2 melanoma = system: SK-MEL-2 melanoma
# SK-MEL-28 melanoma = system: SK-MEL-28 melanoma
# SK-MEL-5 melanoma = system: SK-MEL-5 melanoma
# SK-OV-3 ovarian = system: SK-OV-3 ovarian
# SN12C renal = system: SN12C renal
# SNB-19 CNS = system: SNB-19 CNS
# SNB-75 CNS = system: SNB-75 CNS
# SR leukemia = system: SR leukemia
# SW-620 colon = system: SW-620 colon
# T-47D breast = system: T-47D breast
# U251 CNS = system: U251 CNS
# UACC-257 melanoma = system: UACC-257 melanoma
# UACC-62 melanoma = system: UACC-62 melanoma
# A549 NSCLC = system: A549 NSCLC
# ACHN renal = system: ACHN renal
# EKVX NSCLC = system: EKVX NSCLC
# KM12 colon = system: KM12 colon
# NCI-H522 lung = system: NCI-H522 lung
# TK-10 renal = system: TK-10 renal
# UO-31 renal = system: UO-31 renal
smiles,measurement,setting,value
COc1cc(C2CC(=O)Nc3c2cc(Br)c2ccccc32)cc(Br)c1OC (stereo unspecified),GI50,786-0 renal,1.76 µM
same,TGI,786-0 renal,3.79 µM
same,GI50,A498 renal,1 µM
same,TGI,A498 renal,3.29 µM
same,GI50,BT-549 breast,3.47 µM
same,TGI,BT-549 breast,> 71 µM
same,GI50,CCRF-CEM leukemia,2.01 µM
same,TGI,CCRF-CEM leukemia,21.5 µM
same,GI50,COLO 205 colon,2.06 µM
same,TGI,COLO 205 colon,> 100 µM
same,GI50,DU-145 prostate,6.38 µM
same,TGI,DU-145 prostate,> 100 µM
same,GI50,HCC-2998 colon,4.53 µM
same,TGI,HCC-2998 colon,> 100 µM
same,GI50,HCT-116 colon,0.602 µM
same,TGI,HCT-116 colon,2.44 µM
same,GI50,HCT-15 colon,0.907 µM
same,TGI,HCT-15 colon,> 100 µM
same,GI50,HL-60(TB) leukemia,1.06 µM
same,TGI,HL-60(TB) leukemia,3.98 µM
same,GI50,HOP-62 NSCLC,1.45 µM
same,TGI,HOP-62 NSCLC,3.9 µM
same,GI50,HOP-92 NSCLC,1 µM
same,TGI,HOP-92 NSCLC,7.07 µM
same,GI50,HS 578T breast,1.78 µM
same,TGI,HS 578T breast,> 54.2 µM
same,GI50,HT29 colon,0.514 µM
same,TGI,HT29 colon,4.21 µM
same,GI50,IGROV1 ovarian,2.61 µM
same,TGI,IGROV1 ovarian,> 63.9 µM
same,GI50,K-562 leukemia,0.493 µM
same,TGI,K-562 leukemia,20.5 µM
same,GI50,LOX IMVI melanoma,1.65 µM
same,TGI,LOX IMVI melanoma,> 100 µM
same,GI50,M14 melanoma,1.08 µM
same,TGI,M14 melanoma,> 100 µM
same,GI50,MALME-3M melanoma,1.81 µM
same,TGI,MALME-3M melanoma,67.2 µM
same,GI50,MCF7 breast,0.642 µM
same,TGI,MCF7 breast,> 100 µM
same,GI50,MDA-MB-231 breast,2.66 µM
same,TGI,MDA-MB-231 breast,7.42 µM
same,GI50,MDA-MB-435,0.247 µM
same,TGI,MDA-MB-435,0.864 µM
same,GI50,MOLT-4 leukemia,2.78 µM
same,TGI,MOLT-4 leukemia,> 47.6 µM
same,GI50,NCI-H226 lung,2.34 µM
same,TGI,NCI-H226 lung,5.57 µM
same,GI50,NCI-H23 lung,4.37 µM
same,TGI,NCI-H23 lung,> 100 µM
same,GI50,NCI-H460 lung,1.66 µM
same,TGI,NCI-H460 lung,5 µM
same,GI50,NCI/ADR-RES ovarian,0.398 µM
same,TGI,NCI/ADR-RES ovarian,2.63 µM
same,GI50,OVCAR-3 ovarian,1.14 µM
same,TGI,OVCAR-3 ovarian,2.52 µM
same,GI50,OVCAR-4 ovarian,0.349 µM
same,TGI,OVCAR-4 ovarian,1.44 µM
same,GI50,OVCAR-5 ovarian,3.02 µM
same,TGI,OVCAR-5 ovarian,> 100 µM
same,GI50,OVCAR-8 ovarian,1.74 µM
same,TGI,OVCAR-8 ovarian,> 100 µM
same,GI50,PC-3 prostate,2.62 µM
same,TGI,PC-3 prostate,> 100 µM
same,GI50,RPMI-8226 leukemia,3.71 µM
same,TGI,RPMI-8226 leukemia,> 100 µM
same,GI50,RXF 393 renal,1.73 µM
same,TGI,RXF 393 renal,3.93 µM
same,GI50,SF-268 CNS,4.63 µM
same,TGI,SF-268 CNS,> 100 µM
same,GI50,SF-295 CNS,1.47 µM
same,TGI,SF-295 CNS,5.4 µM
same,GI50,SF-539 CNS,3.27 µM
same,TGI,SF-539 CNS,> 58.6 µM
same,GI50,SK-MEL-2 melanoma,3.67 µM
same,TGI,SK-MEL-2 melanoma,27.2 µM
same,GI50,SK-MEL-28 melanoma,2.98 µM
same,TGI,SK-MEL-28 melanoma,> 100 µM
same,GI50,SK-MEL-5 melanoma,2.82 µM
same,TGI,SK-MEL-5 melanoma,> 100 µM
same,GI50,SK-OV-3 ovarian,1.76 µM
same,TGI,SK-OV-3 ovarian,3.35 µM
same,GI50,SN12C renal,2.54 µM
same,TGI,SN12C renal,> 100 µM
same,GI50,SNB-19 CNS,2.69 µM
same,TGI,SNB-19 CNS,9.96 µM
same,GI50,SNB-75 CNS,0.998 µM
same,TGI,SNB-75 CNS,2.52 µM
same,GI50,SR leukemia,0.416 µM
same,TGI,SR leukemia,1.77 µM
same,GI50,SW-620 colon,0.53 µM
same,TGI,SW-620 colon,> 100 µM
same,GI50,T-47D breast,1.61 µM
same,TGI,T-47D breast,5.26 µM
same,GI50,U251 CNS,1.42 µM
same,TGI,U251 CNS,3.7 µM
same,GI50,UACC-257 melanoma,12.6 µM
same,TGI,UACC-257 melanoma,> 100 µM
same,GI50,UACC-62 melanoma,1.64 µM
same,TGI,UACC-62 melanoma,> 100 µM
O=C(Nc1cnc(C(F)(F)F)cn1)c1cc(Cl)ccc1O,GI50,786-0 renal,0.356 µM
same,TGI,786-0 renal,15.9 µM
same,GI50,A498 renal,0.235 µM
same,TGI,A498 renal,0.639 µM
same,GI50,A549 NSCLC,0.377 µM
same,TGI,A549 NSCLC,> 100 µM
same,GI50,ACHN renal,0.269 µM
same,TGI,ACHN renal,1.16 µM
same,GI50,BT-549 breast,0.255 µM
same,TGI,BT-549 breast,0.835 µM
same,GI50,CCRF-CEM leukemia,0.406 µM
same,TGI,CCRF-CEM leukemia,> 100 µM
same,GI50,COLO 205 colon,1.54 µM
same,TGI,COLO 205 colon,3.14 µM
same,GI50,DU-145 prostate,0.348 µM
same,TGI,DU-145 prostate,> 100 µM
same,GI50,EKVX NSCLC,0.228 µM
same,GI50,HCC-2998 colon,0.294 µM
same,TGI,HCC-2998 colon,4.6 µM
same,GI50,HCT-116 colon,0.246 µM
same,TGI,HCT-116 colon,1.4 µM
same,GI50,HCT-15 colon,0.307 µM
same,TGI,HCT-15 colon,3.24 µM
same,GI50,HL-60(TB) leukemia,0.279 µM
same,TGI,HL-60(TB) leukemia,0.654 µM
same,GI50,HOP-62 NSCLC,0.266 µM
same,TGI,HOP-62 NSCLC,2.35 µM
same,GI50,HOP-92 NSCLC,0.188 µM
same,TGI,HOP-92 NSCLC,0.621 µM
same,GI50,HS 578T breast,0.335 µM
same,TGI,HS 578T breast,26.4 µM
same,GI50,HT29 colon,2.56 µM
same,TGI,HT29 colon,> 100 µM
same,GI50,IGROV1 ovarian,0.374 µM
same,TGI,IGROV1 ovarian,> 100 µM
same,GI50,K-562 leukemia,0.272 µM
same,TGI,K-562 leukemia,> 100 µM
same,GI50,KM12 colon,0.343 µM
same,TGI,KM12 colon,16.2 µM
same,GI50,LOX IMVI melanoma,0.291 µM
same,TGI,LOX IMVI melanoma,1.75 µM
same,GI50,M14 melanoma,0.306 µM
same,TGI,M14 melanoma,2.46 µM
same,GI50,MALME-3M melanoma,0.197 µM
same,TGI,MALME-3M melanoma,0.565 µM
same,GI50,MCF7 breast,0.29 µM
same,TGI,MCF7 breast,> 100 µM
same,GI50,MDA-MB-231 breast,0.27 µM
same,TGI,MDA-MB-231 breast,0.946 µM
same,GI50,MDA-MB-435,0.318 µM
same,TGI,MDA-MB-435,3.23 µM
same,GI50,MOLT-4 leukemia,0.352 µM
same,TGI,MOLT-4 leukemia,1.78 µM
same,GI50,NCI-H226 lung,0.322 µM
same,TGI,NCI-H226 lung,23.9 µM
same,GI50,NCI-H23 lung,0.257 µM
same,TGI,NCI-H23 lung,1.22 µM
same,GI50,NCI-H460 lung,0.332 µM
same,TGI,NCI-H460 lung,15.2 µM
same,GI50,NCI-H522 lung,0.178 µM
same,TGI,NCI-H522 lung,0.768 µM
same,GI50,NCI/ADR-RES ovarian,0.279 µM
same,TGI,NCI/ADR-RES ovarian,13.6 µM
same,GI50,OVCAR-3 ovarian,0.279 µM
same,TGI,OVCAR-3 ovarian,20.3 µM
same,GI50,OVCAR-4 ovarian,0.254 µM
same,TGI,OVCAR-4 ovarian,> 100 µM
same,GI50,OVCAR-5 ovarian,0.343 µM
same,TGI,OVCAR-5 ovarian,> 100 µM
same,GI50,OVCAR-8 ovarian,0.365 µM
same,TGI,OVCAR-8 ovarian,61.8 µM
same,GI50,PC-3 prostate,0.311 µM
same,TGI,PC-3 prostate,> 100 µM
same,GI50,RPMI-8226 leukemia,0.273 µM
same,TGI,RPMI-8226 leukemia,2.75 µM
same,GI50,RXF 393 renal,0.318 µM
same,TGI,RXF 393 renal,0.922 µM
same,GI50,SF-268 CNS,0.296 µM
same,TGI,SF-268 CNS,94.1 µM
same,GI50,SF-295 CNS,0.255 µM
same,TGI,SF-295 CNS,0.675 µM
same,GI50,SF-539 CNS,0.294 µM
same,TGI,SF-539 CNS,7.91 µM
same,GI50,SK-MEL-2 melanoma,0.271 µM
same,TGI,SK-MEL-2 melanoma,0.84 µM
same,GI50,SK-MEL-28 melanoma,0.257 µM
same,TGI,SK-MEL-28 melanoma,2.2 µM
same,GI50,SK-MEL-5 melanoma,0.131 µM
same,TGI,SK-MEL-5 melanoma,0.336 µM
same,GI50,SN12C renal,0.326 µM
same,TGI,SN12C renal,52.4 µM
same,GI50,SNB-19 CNS,0.403 µM
same,TGI,SNB-19 CNS,> 100 µM
same,GI50,SNB-75 CNS,0.194 µM
same,TGI,SNB-75 CNS,0.835 µM
same,GI50,SR leukemia,0.347 µM
same,TGI,SR leukemia,2.19 µM
same,GI50,SW-620 colon,0.348 µM
same,TGI,SW-620 colon,> 100 µM
same,GI50,T-47D breast,0.238 µM
same,TGI,T-47D breast,0.851 µM
same,GI50,TK-10 renal,0.465 µM
same,TGI,TK-10 renal,> 100 µM
same,GI50,U251 CNS,0.352 µM
same,TGI,U251 CNS,> 100 µM
same,GI50,UACC-257 melanoma,0.267 µM
same,TGI,UACC-257 melanoma,0.781 µM
same,GI50,UACC-62 melanoma,0.191 µM
same,TGI,UACC-62 melanoma,1.48 µM
same,GI50,UO-31 renal,0.196 µM
same,TGI,UO-31 renal,1.16 µM
